How the values were obtained:
stress ulcer = assay: Stress Ulcer Inhibition Test; type: in vivo, Male Wistar rats; conditions: Rattus norvegicus, 7 h, oral, Wistar rats, read-out: Inhibition ratio (stress ulcer)
Experimental: Experiment 1 Stress Ulcer Inhibition Test
(§1) The test drugs used were the compounds obtained in the foregoing Examples. Number in test drug column of Table 8 means a compound which is prepared in the correspondingly numbered Example.
Also, symbols A-E in test drug column of Table 8 mean the following compounds used as the control compounds.
The stress ulcer inhibition test was carried out according to a method of K. Takagi et al as described in Japan J. Pharmacol., vol. 18, page 9 (1968).
Male Wistar rats weighing 160 to 180 g (7 animals for each group), after a 24 hour-fast, were given orally the test drug (50 mg/kg and/or 100 mg/kg) suspended in 0.4% CMC, and placed in the stress cage made of a galvanized wire net, which was then immerged into the thermostatic water bath kept on 23° C. until the lower part of the sternum of the animals. Seven hours later, the animals were lapotomized to measure the area of the mucosa produced in the stomach, and the inhibition ration was calculated.

[1] = tested on: gastric lesions induced by 0.6 N hydrochloric acid; assay: Gastric Mucosal Protection Test (gastric lesions induced by 0.6 N hydrochloric acid); type: in vivo, Male Wistar rats; conditions: Rattus norvegicus, oral, Wistar rats, 0.6 N HCl, read-out: Inhibition ratio (lesion index, gastric mucosal protection)
Experimental: Experiment 2 Gastric Mucosal Protection Test
as §1
Also, symbols A-E in test drug column of Table 9 are as defined in Experiment 1.
The test of protection effect against the gastric lesions induced by 0.6 N hydrochloric acid (gastric mucosal protection effect) was carried out according to a method of A. Robert et al as described in Gastroenterology,vol. 77, pages 433-443 (1979).
Male Wistar rats weighing 180-210 g (7 animals for each group), after a 24 hour-fast, were given orally the test drug (50 mg/kg and/or 100 mg/kg) suspended in 0.4% CMC. After standing at room temperature for 2 hours, 0.6 N hydrochloric acid was given orally in a dose of 1 ml per rat. After standing at room temperature for a further one hour, rats were killed to measure the length of the gastric mucosal lesions induced in the stomachs, and total of the length was designated as the lesion index per rat.
The inhibition ratio (%) was calculated by comparison of the lesion index of the group treated with the test drug with the untreated group.

gastric acid secretion = assay: 2-DG-induced Acid Secretion Test, Gastric Lumen Perfused Rats; type: in vivo; conditions: intraperitoneal
Experimental: Experiment 3 2-DG-induced Acid Secretion Test Gastric Lumen Perfused Rats
The test was carried out according to the method of K. Watanabe et al in Eur. J. Pharmacology, vol. 90, page 11-17 (1983), and the inhibition ratio of gastric acid secretion of the test drug was calculated.
Number and symbol in test drug column are as defined above.
The test drug was given intraperitoneally.

| Structure (SMILES) | inhibition in vivo at 50 mg/kg (stress ulcer) [%] | inhibition in vivo at 50 mg/kg [1] [%] | further results |
| --- | --- | --- | --- |
| CC(C)=CCOc1ccc(C(=O)/C=C/c2ccc(C(=O)O)cc2)c(OCC(=O)O)c1 [A, 4-carboxy-2'-carboxymethoxy-4'-(3-methyl-2-butenyloxy)chalcone, reference compound] | < 10 | < 10 |  |
| CC(C)=CCOc1ccc(C(=O)/C=C/c2ccc(OCC(=O)O)cc2)c(OCC(=O)O)c1 [B, 2',4-bis(carboxymethoxy)-4'-(3-methyl-2-butenyloxy)chalcone, reference compound] | < 10 | < 10 |  |
| CC(C)=CCOc1ccc(/C=C/C(=O)c2ccc(OCC=C(C)C)cc2OCC(=O)O)cc1 [C, 2'-carboxymethoxy-4,4'-bis(3-methyl-2-butenyloxy)chalcone, reference compound] | < 10 | < 10 | Inhibition ratio of gastric acid secretion (gastric acid secretion; 200 mg/kg): 35.2% |
| CC(C)=CCOc1ccc(C(=O)/C=C/c2ccc(C)cc2)c(OCC(=O)O)c1 [D, 2'-carboxymethoxy-4-methyl-4'-(3-methyl-2-butenyloxy)chalcone, reference compound] | < 10 | < 10 | inhibition in vivo at 100 mg/kg (stress ulcer): 26.2% |
| CCCc1ccc(/C=C/C(=O)c2ccc(OCC=C(C)C)cc2OCC(=O)O)cc1 [E, 2'-carboxymethoxy-4'-(3-methyl-2-butenyloxy)-4-n-propylchalcone, reference compound] | 33.7 | 24.8 | inhibition in vivo at 100 mg/kg (stress ulcer): 57.1% |
| CCCCCCCc1ccc(/C=C/C(=O)c2ccc(OCC=C(C)C)cc2OCC(=O)OCC)cc1 [Example 18] |  | 37.6 | inhibition in vivo at 100 mg/kg [1]: 53.8% |
| CCC(C)c1ccc(/C=C/C(=O)c2ccc(OCC=C(C)C)cc2OCC(=O)O)cc1 (centres unmarked) [Example 24] | 70.5 |  |  |
| CCCCc1ccc(/C=C/C(=O)c2ccc(OCC=C(C)C)cc2OCC(=O)O)cc1 [Example 25] | 61 |  | inhibition in vivo at 100 mg/kg (stress ulcer): 63% |
| CCCCCc1ccc(/C=C/C(=O)c2ccc(OCC=C(C)C)cc2OCC(=O)O)cc1 [Example 27] | 86.3 |  |  |
| CC(C)=CCOc1ccc(C(=O)/C=C/c2ccc(CCC(C)C)cc2)c(OCC(=O)O)c1 [Example 28] | 89 |  |  |
| CCCCCCc1ccc(/C=C/C(=O)c2ccc(OCC=C(C)C)cc2OCC(=O)O)cc1 [Example 29, 2'-carboxymethoxy-4-n-hexyl-4'-(3-methyl-2-butenyloxy)chalcone] | 67.3 | 81.2 | inhibition in vivo at 100 mg/kg [1]: 83.7% |
| CCCCCCCc1ccc(/C=C/C(=O)c2ccc(OCC=C(C)C)cc2OCC(=O)O)cc1 [Example 30, 2'-carboxymethoxy-4-n-heptyl-4'-(3-methyl-2-butenyloxy)chalcone] | 91.8 | 83.8 | inhibition in vivo at 100 mg/kg [1]: 94.4% |
| CCCCCCCCc1ccc(/C=C/C(=O)c2ccc(OCC=C(C)C)cc2OCC(=O)O)cc1 [Example 31] | 77.2 |  |  |
| CCCCCCCCCCCCCCCc1ccccc1/C=C/C(=O)c1ccc(OCC=C(C)C)cc1OCC(=O)O [Example 36] | 48.7 |  |  |
| CC(C)=CCOc1ccc(C(=O)/C=C/c2ccc(C(C)(C)C)cc2)c(OCC(=O)O)c1 [Example 44, 4-t-butyl-2'-carboxymethoxy-4'-(3-methyl-2-butenyloxy)chalcone] | 76 | 61.9 | Inhibition ratio of gastric acid secretion (gastric acid secretion; 30 mg/kg): 54.3%; Inhibition ratio of gastric acid secretion (gastric acid secretion; 100 mg/kg): 66.8%; inhibition in vivo at 100 mg/kg (stress ulcer): 84.2%; inhibition in vivo at 100 mg/kg [1]: 82.8% |
| CC(C)=CCOc1ccc(C(=O)/C=C/c2ccc(C(C)(C)C)cc2)c(OC(C)C(=O)O)c1 (centres unmarked) [Example 45, 4-(t-butyl)-2'-(1-carboxethoxy)-4'-(3-methyl-2-butenyloxy)chalcone] | 50.4 |  |  |
| CCCCCCc1ccc(/C=C/C(=O)c2ccc(OCC=C(C)C)cc2OC(C)C(=O)O)cc1 (centres unmarked) [Example 46] | 63 |  |  |
| CC(C)=CCOc1ccc(C(=O)/C=C/c2ccc(C(C)(C)C)cc2)c(OCCCC(=O)O)c1 [Example 48] |  |  | inhibition in vivo at 100 mg/kg (stress ulcer): 72% |
| CCCCCC/C=C/c1ccc(/C=C/C(=O)c2ccc(OCC=C(C)C)cc2OCC(=O)O)cc1 [Example 49, 2'-carboxymethoxy-4'-(3-methyl-2-butenyloxy)-4-(1-(E)-octenyl)chalcone] | 76.6 |  |  |
| CCCC/C=C/c1ccc(/C=C/C(=O)c2ccc(OCC=C(C)C)cc2OCC(=O)O)cc1 [Example 51] | 93.3 |  |  |
| CCCCC/C=C/c1ccc(/C=C/C(=O)c2ccc(OCC=C(C)C)cc2OCC(=O)O)cc1 [Example 52] | 93.4 |  |  |
| C=CCCc1ccc(/C=C/C(=O)c2ccc(OCC=C(C)C)cc2OCC(=O)O)cc1 [Example 54] | 56.9 |  |  |

Reference: patent publication US5089654A, “Chalcone derivatives” (Taisho Pharmaceutical Co., Ltd., priority 1989, dated 1992)
